For one test, the target named is T1, wild-type BTK (Homo sapiens, UniProt Q06187).
T1 construct: expressed in transfected cells; host or cells: XLA cells (gift from Dr. Woyach)
The experiment in a line: BTK degradation in XLA cells overexpressing wild-type BTK (western blot). The class given is cell-based. As to conditions: 24 h. On the procedure: XLA cells overexpressing wild-type BTK or mutant C481S BTK were plated at the same cell number and density as the above experiments and were treated with RC-1, IRC-1, or RNC-1 at the dose of 1.6, 8.0, 40, 200, and 1000 nM for 24 h. After completion of treatment, all the cells were collected and processed for western blot analysis.
The collected cells and spleen tissues were lysed in RIPA lysis buffer (50 mM Tris-HCl, pH 7.4, 150 mM NaCl, 1% NP-40, 0.5% sodium deoxycholate, 0.1% SDS) supplemented with Halt™ Protease and Phosphatase Inhibitor Cocktail (Thermo Fisher Scientific, Cat. No. PI78440) immediately before use. Lysates were centrifuged at 15,000 × g for 10 min at 4 °C and the supernatant was quantified for total protein concentration using the Pierce BCA Protein Assay (Thermo Fisher Scientific, Cat. No. 23225). Thirty micrograms of protein were loaded onto sodium dodecyl sulfate−polyacrylamide gel for electrophoresis (Bio-Rad) and transferred onto PVDF membranes (Millipore, Cat. No. IPVH00010). […] Imaging was performed using the ECL Prime chemiluminescent western blot detection reagents (GE Healthcare, Cat. No. RPN2232) by visualization of the blots to X-Ray film or with an Imager (Kindle Biosciences, Cat. No. D1001). All western blots were subsequently processed and quantified with Imager software. Protein level was normalized to β-actin or GAPDH loading controls.

A further test deals with IKZF1. The test can be described thus: Splenic IKZF1 level in mice after single RC-1 injection (western blot). The class given is in vivo, ICR mice. As to conditions: for IKZF1 level, mean: Figure 5d, DMSO = 100; for IKZF1 quantification: Supplementary Figure 8, individual animals. The procedure:
(§1) To investigate the protein degradation effect of RC-1 in vivo, mice were subjected to single RC-1 administration at the dose of 50 or 100 mg kg^−1 (i.p.) or seven once-daily RC-1 administration at the dose of 20 mg kg^−1 (i.p.) (n = 2–3). Twenty-four hours after the one-time RC-1 injection or 24 h after the 7th injection, mice were anesthetized with isoflurane and the whole spleen was dissected and stored at −80 °C for western blot analysis of protein level.
(§2) Supplementary Figure 8. Protein degradation by BTK PROTAC RC-1 in mouse spleen. ICR mice were subjected to single IP injection of RC-1 at the dose of 50 mg/kg (n = 4) or 100 mg/kg (n = 3) and spleens were harvested 24 h after injection. (a) The splenic p-BTK(Y233), BTK, IKZF1 and IKZF3 levels were measured with Western blot. (b). Quantification of protein levels shown in (a). Data are presented as mean values ± SEM.
(§3) Asterisks indicate that the differences between samples are statistically significant, using two-tailed, unpaired t- […]
(§4) test (* p < 0.05; significant).
(§5) (1 picture or pasted object on this page, not shown here)
In general terms: In western blotting, separated proteins are transferred to a membrane and probed.

For the next test, the system named is IKZF3. The experiment in a line: Splenic IKZF3 level in mice after single RC-1 injection (western blot). The test is classed as in vivo, ICR mice. The settings on record: for IKZF3 level, mean: Figure 5d, DMSO = 100; for IKZF3 quantification: Supplementary Figure 8, individual animals. The procedure:
as §1, §2, §3, §4, §5

“And” between values parts separate entries of the source, which are not always exact repeats. Identical values can stand only once. “Also recorded” adds a separate entry of the source.

T1 sequence (Q06187 whole entry): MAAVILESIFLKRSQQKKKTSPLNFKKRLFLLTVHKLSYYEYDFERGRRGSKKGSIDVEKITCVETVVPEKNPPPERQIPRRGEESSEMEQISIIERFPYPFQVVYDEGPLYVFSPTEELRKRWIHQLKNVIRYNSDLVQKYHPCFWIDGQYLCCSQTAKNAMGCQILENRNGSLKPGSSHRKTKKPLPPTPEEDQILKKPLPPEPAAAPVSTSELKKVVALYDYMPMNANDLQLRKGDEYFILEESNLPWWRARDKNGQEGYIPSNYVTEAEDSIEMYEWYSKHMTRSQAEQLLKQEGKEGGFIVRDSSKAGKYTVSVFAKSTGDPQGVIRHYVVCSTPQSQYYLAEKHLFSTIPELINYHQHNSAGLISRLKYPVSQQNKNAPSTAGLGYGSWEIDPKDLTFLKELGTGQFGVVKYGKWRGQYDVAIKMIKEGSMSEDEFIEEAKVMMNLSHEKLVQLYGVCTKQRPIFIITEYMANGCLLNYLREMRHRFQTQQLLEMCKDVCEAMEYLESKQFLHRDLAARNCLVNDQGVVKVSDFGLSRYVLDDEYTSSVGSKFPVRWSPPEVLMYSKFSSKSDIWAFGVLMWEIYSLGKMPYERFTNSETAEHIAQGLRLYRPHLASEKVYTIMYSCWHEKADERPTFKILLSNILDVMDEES

Turning to `CN(CCCNC(=O)CNc1cccc2c1C(=O)N(C1CCC(=O)NC1=O)C2=O)C(C)(C)C=C(C#N)C(=O)N1CCC[C@@H](n2nc(-c3ccc(Oc4ccccc4)cc3)c3c(N)ncnc32)C1` (stereo partly drawn) [RC-1], the “BTK degradation (in words)” value at wild-type BTK was “dose-dependent BTK degradation; also recorded: degrades both wild-type BTK and the C481S mutant with similar potency”. Besides, the figures for the “IKZF1 level, mean” value in the test on IKZF1 (1 injection) and in the test on IKZF1 (7 injections) were 82.288 and 77.6802, respectively. For the same compound, the IKZF1 quantification with IKZF1 (RC-1 50 mg/kg, 50 mg/kg) was 32.4273 and 61.2234 and 87.896 and 43.9089; in the test on IKZF1 (RC-1 100 mg/kg, 100 mg/kg), 24.57 and 78.1459 and 58.0151. The results for the “IKZF3 level, mean” value in the test on IKZF3 (1 injection) and in the test on IKZF3 (7 injections) were 34.6975 and 73.2929, respectively. Moreover, the IKZF3 quantification was 18.4248 and 33.3032 and 114.952 and 16.6702 in the test with IKZF3 (RC-1 50 mg/kg, 50 mg/kg); 2.1 and 60.2254 and 21.7286 in the test with IKZF3 (RC-1 100 mg/kg, 100 mg/kg).

Values taken from paper PMC7450057, “Enhancing intracellular accumulation and target engagement of PROTACs with reversible covalent chemistry” (Nature Communications, 2020).
